Test results taken from US20150231162A1, “FRUCTOSE ABSORPTION INHIBITOR” (Nagaoka Perfumery Co., Ltd., priority 2011, published 2015).

system: human colon carcinoma cell line, Caco-2; test: Fructose absorption inhibitory activity in the intestinal tracts (fructose permeation across a Caco-2 monolayer in Transwell inserts); type: cell-based; details: Dosage 5 μg/ml; 50 mM fructose, 3 h, Caco-2 Transwell
Protocol: Evaluation of fructose absorption inhibitory activity was carried out using the human colon carcinoma cell line, Caco-2 (manufactured by Dainippon Sumitomo Pharma Co., Ltd.) utilized for model experiments of the small intestinal mucosa. […] Caco-2 cells were seeded in a 6-well Transwell Insert (internal area: 4.2 cm2) and subcultured for around 3 weeks, while DMEM medium was replaced once every 3 to 4 days, until the Caco-2 cell density became around 2×10^5 cells/insert. The TEER value was measured before experiments and the state of Caco-2 cells was confirmed. […] Medium in the 6-well Transwell Insert was removed. […] A sample solution of each sample illustrated in Table 1 was added to the insert and each mixture was preincubated for 5 min. […] The TEER values were measured. […] The measurement was carried out three times for each sample illustrated in Table 1. The fructose concentrations of the permeated solutions were measured by an enzymatic method using D-fructose dehydrogenase (derived from Gluconobac sp.) (The concentration of each reagent represents the final concentration, respectively.). […] The fructose absorption inhibitory rate of each compound was determined using the following formula (I). […] As control, measurement was also carried out for gallic acid, ellagic acid, quercetin, (+)-catechin, (−)-epicatechin and (−)-epigallocatechin gallate.

Compared with O=C(O[C@H]1[C@@H]2OC(=O)c3cc(O)c(O)c(O)c3-c3c(cc(O)c(O)c3O)C(=O)OC[C@H]2OC(O)[C@@H]1OC(=O)c1cc(O)c(O)c(O)c1)c1cc(O)c(O)c(O)c1 (stereo partly shown) [compound 1, Tellimagrandin I], O=C(O[C@@H]1O[C@@H]2COC(=O)c3cc(O)c(O)c(O)c3-c3c(cc(O)c(O)c3O)C(=O)O[C@H]2[C@H](OC(=O)c2cc(O)c(O)c(O)c2)[C@H]1O)c1cc(O)c(O)c(O)c1 [compound 5, 1,3-di-O-galloyl-4,6-HHDP-β-D-glucose] is higher in “Inhibitory Rate” value: 49% for the first, 57% for the second.

Going from O=C(O[C@H]1[C@@H]2OC(=O)c3cc(O)c(O)c(O)c3-c3c4cc(c(O)c3O)Oc3c(cc(O)c(O)c3O)C(=O)O[C@H]3C(O)O[C@@H]5COC(=O)c6cc(O)c(O)c(O)c6-c6c(cc(c(O)c6O)Oc6c(cc(O)c(O)c6O)C(=O)O[C@H]1C(O)O[C@@H]2COC4=O)C(=O)O[C@H]5[C@@H]3OC(=O)c1cc(O)c(O)c(O)c1)c1cc(O)c(O)c(O)c1 (stereo partly shown) [compound 7, Oenothein B] to “(−)-epigallocatechin gallate [compound 16, reference compound]”, the “Inhibitory Rate” value falls from 63% to 28%.

Eugeniflorin D2 [compound 6] was tested, and the “Inhibitory Rate” value was 53%.

same assay, conditions: Dosage 50 μg/ml; 50 mM fructose, 3 h, Caco-2 Transwell

With Oc1cc(O)c2c(c1)O[C@H](c1ccc(O)c(O)c1)[C@@H](O)C2 [compound 14, (+)-catechin, reference compound] the “Inhibitory Rate” value was less than 10%.
With Oc1cc(O)c2c(c1)O[C@H](c1ccc(O)c(O)c1)[C@H](O)C2 [compound 15, (−)-epicatechin, reference compound] the “Inhibitory Rate” value was less than 10%.

same assay, conditions: Homo sapiens; Dosage 5 μg/ml; 50 mM fructose, 3 h, Caco-2 Transwell; read-out: Inhibitory Rate

First: O=C(OC1O[C@@H]2COC(=O)c3cc(O)c(O)c(O)c3-c3c(cc(O)c(O)c3O)C(=O)O[C@H]2[C@H](OC(=O)c2cc(O)c(O)c(O)c2)[C@H]1OC(=O)c1cc(O)c(O)c(O)c1)c1cc(O)c(O)c(O)c1 (stereo partly shown) [compound 2, Tellimagrandin II]
Second: O=C(O[C@@H]1O[C@@H]2COC(=O)c3cc(O)c(O)c(O)c3-c3cc(c(O)c(O)c3O)C(=O)O[C@H]2[C@@H]2OC(=O)c3cc(O)c(O)c(O)c3-c3c(cc(O)c(O)c3O)C(=O)O[C@@H]12)c1cc(O)c(O)c(O)c1 [compound 4, Casuarictin]
The inhibition at 5 µg/mL of the first is higher: 52% for the first, 46% for the second.

O=C(O[C@@H]1O[C@@H]2COC(=O)c3cc(O)c(O)c(O)c3-c3c(cc(O)c(O)c3O)C(=O)O[C@H]2[C@H](O)[C@H]1O)c1cc(O)c(O)c(O)c1 [compound 3, Strictinin] showed an inhibition at 5 µg/mL of 43%.

same assay, conditions: Homo sapiens; Dosage 50 μg/ml; 50 mM fructose, 3 h, Caco-2 Transwell; read-out: Inhibitory Rate

First: O=C(O)c1cc(O)c(O)c(O)c1 [compound 11, Gallic acid, reference compound]
Second: O=c1oc2c(O)c(O)cc3c(=O)oc4c(O)c(O)cc1c4c23 [compound 12, Ellagic acid, reference compound]
The inhibition at 50 µg/mL of the first is lower: 19% for the first, 22% for the second.

O=c1c(O)c(-c2ccc(O)c(O)c2)oc2cc(O)cc(O)c12 [compound 13, Quercetin, reference compound] gave an inhibition at 50 µg/mL of 23%.
